Columns and labels:
Assay type in all cases: in vivo
[1] = test system: velvetleaf (Abutilon theophrasti); assay: Test C pre-/postemergence: velvetleaf
Method in brief: (§1)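 Preemergence on seeds in loam/sand, postemergence on 2–18 cm (1–4-leaf) plants in peat-based medium; compounds in non-phytotoxic solvent with surfactant. After 13–15 days in greenhouse, visual rating versus controls, 0 (no effect) to 100 (complete control).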

[2] = test system: winter wheat (Triticum aestivum); assay: Test C pre-/postemergence: winter wheat
Method in brief: as §1

[3] = test system: pigweed (Amaranthus retroflexus); assay: Test C pre-/postemergence: pigweed
Method in brief: as §1

[4] = test system: johnsongrass (Sorghum halepense); assay: Test C pre-/postemergence: johnsongrass
Method in brief: as §1

rice (Oryza sativa) = assay: Test B flooded paddy: rice; details: Flood; 250 g ai/ha; applied to paddy water at 2-leaf stage; visually evaluated after 13 to 15 days
Method in brief: (§2)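 Plants were grown to the 2-leaf stage and pots flooded to 3 cm above soil. Compounds were applied directly into the paddy water, with depth kept for the test. After 13–15 days in greenhouse, response was rated visually against controls on a 0 (no effect) to 100 (complete control) scale.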

[5] = test system: foxtail, giant (giant foxtail, Setaria faberii); assay: Test C pre-/postemergence: foxtail, giant
Method in brief: as §1

[6] = test system: blackgrass (Alopecurus myosuroides); assay: Test C pre-/postemergence: blackgrass
Method in brief: as §1

kochia (Kochia scoparia) = assay: Test C pre-/postemergence: kochia; details: Postemergence
Method in brief: as §1

[7] = test system: barnyardgrass (Echinochloa crus-galli); assay: Test B flooded paddy: barnyardgrass; details: Flood; 250 g ai/ha; applied to paddy water at 2-leaf stage; visually evaluated after 13 to 15 days
Method in brief: as §2

soybean (Glycine max) = assay: Test C pre-/postemergence: soybean
Method in brief: as §1

corn (Zea mays) = assay: Test C pre-/postemergence: corn
Method in brief: as §1

[8] = Postemergence, 31 g ai/ha, scale 0 to 100 (0 no effect, 100 complete control)
[9] = Postemergence, 62 g ai/ha, scale 0 to 100 (0 no effect, 100 complete control)
[10] = Postemergence, 125 g ai/ha, scale 0 to 100, 0 no effect, 100 complete control
[11] = Postemergence, 250 g ai/ha, scale 0 to 100 (0 no effect, 100 complete control)
[12] = Preemergence, 31 g ai/ha, scale 0 (no effect) to 100 (complete control)
[13] = Preemergence, 62 g ai/ha, scale of 0 to 100, 0 is no effect, 100 is complete control
[14] = Preemergence, 125 g ai/ha, scale 0 to 100, 0 no effect, 100 complete control
[15] = Preemergence, 250 g ai/ha, scale 0 to 100, 0 no effect, 100 complete control
[16] = Postemergence, 250 g ai/ha, scale 0 to 100

`CCCc1nn(-c2ccc(F)cc2)nc1Oc1ccnc(C(F)(F)F)c1` [Compound 168] was tested, and the “Plant response rating, Velvetleaf” value [1, 8] was 60, the “Plant response rating, Velvetleaf” value [1, 9] was 75 and the “Plant response rating, Velvetleaf” value [1, 10] was 80. For the same compound, the “Plant response rating, Velvetleaf” value [1, 11] was 90, the “Plant response rating, Velvetleaf” value [1, 12] was 80 and the “Plant response rating, Velvetleaf” value [1, 13] was 100. The “Plant response rating, Velvetleaf” value [1, 14] was 100, the “Plant response rating, Velvetleaf” value [1, 15] was 100 and the “Plant response rating, Wheat” value [2, 8] was 20. The “Plant response rating, Wheat” value [2, 9] was 20, the “Plant response rating, Wheat” value [2, 10] was 35 and the “Plant response rating, Wheat” value [2, 11] was 45. The “Plant response rating, Wheat” value [2, 12] was 5, the “Plant response rating, Wheat” value [2, 13] was 40 and the “Plant response rating, Wheat” value [2, 14] was 40. For the same compound, the “Plant response rating, Wheat” value [2, 15] was 60, the “Plant response rating, Pigweed” value [3, 8] was 80 and the “Plant response rating, Pigweed” value [3, 9] was 98. For the same compound, the “Plant response rating, Pigweed” value [3, 10] was 98, the “Plant response rating, Pigweed” value [3, 11] was 98 and the “Plant response rating, Pigweed” value [3, 12] was 100. For the same compound, the “Plant response rating, Pigweed” value [3, 13] was 100, the “Plant response rating, Pigweed” value [3, 14] was 100 and the “Plant response rating, Pigweed” value [3, 15] was 100. For the same compound, the “Plant response rating, Johnsongrass” value [4, 8] was 30, the “Plant response rating, Johnsongrass” value [4, 9] was 55 and the “Plant response rating, Johnsongrass” value [4, 10] was 70. For the same compound, the “Plant response rating, Johnsongrass” value [4, 11] was 75, the “Plant response rating, Johnsongrass” value [4, 12] was 75 and the “Plant response rating, Johnsongrass” value [4, 13] was 98. For the same compound, the “Plant response rating, Johnsongrass” value [4, 14] was 100, the “Plant response rating, Johnsongrass” value [4, 15] was 100 and the “Plant response rating, Rice (0 to 100 scale, 0 is no effect, 100 is complete control)” value (rice (Oryza sativa)) was 60. For the same compound, the “Plant response rating, Foxtail, Giant” value [5, 8] was 55, the “Plant response rating, Foxtail, Giant” value [5, 9] was 65 and the “Plant response rating, Foxtail, Giant” value [5, 10] was 95. The “Plant response rating, Foxtail, Giant” value [5, 16] was 95, the “Plant response rating, Foxtail, Giant” value [5, 12] was 100 and the “Plant response rating, Foxtail, Giant” value [5, 13] was 100. The “Plant response rating, Foxtail, Giant” value [5, 14] was 100, the “Plant response rating, Foxtail, Giant” value [5, 15] was 100 and the “Plant response rating, Blackgrass” value [6, 8] was 45. The “Plant response rating, Blackgrass” value [6, 9] was 45, the “Plant response rating, Blackgrass” value [6, 10] was 80 and the “Plant response rating, Blackgrass” value [6, 16] was 80. The “Plant response rating, Blackgrass” value [6, 12] was 90, the “Plant response rating, Blackgrass” value [6, 13] was 90 and the “Plant response rating, Blackgrass” value [6, 14] was 95. The “Plant response rating, Blackgrass” value [6, 15] was 98, the “Plant response rating, Kochia” value (kochia (Kochia scoparia); 31 g ai/ha, scale 0 to 100 (0 no effect, 100 complete control)) was 90 and the “Plant response rating, Kochia” value (kochia (Kochia scoparia); 62 g ai/ha, scale 0 to 100 (0 no effect, 100 complete control)) was 90. For the same compound, the “Plant response rating, Kochia” value (kochia (Kochia scoparia); 125 g ai/ha, scale 0 to 100, 0 no effect, 100 complete control) was 90, the “Plant response rating, Kochia” value (kochia (Kochia scoparia); 250 g ai/ha, scale 0 to 100 (0 no effect, 100 complete control)) was 90 and the “Plant response rating, Barnyardgrass (0 to 100 scale, 0 is no effect, 100 is complete control)” value [7] was 80. For the same compound, the “Plant response rating, Soybean” value (soybean (Glycine max); [8]) was 30, the “Plant response rating, Soybean” value (soybean (Glycine max); [9]) was 35 and the “Plant response rating, Soybean” value (soybean (Glycine max); [10]) was 60. For the same compound, the “Plant response rating, Soybean” value (soybean (Glycine max); [11]) was 60, the “Plant response rating, Soybean” value (soybean (Glycine max); [12]) was 5 and the “Plant response rating, Soybean” value (soybean (Glycine max); [13]) was 10. The “Plant response rating, Soybean” value (soybean (Glycine max); [14]) was 10, the “Plant response rating, Soybean” value (soybean (Glycine max); [15]) was 35 and the “Plant response rating, Corn” value (corn (Zea mays); [8]) was 15. The “Plant response rating, Corn” value (corn (Zea mays); [9]) was 15, the “Plant response rating, Corn” value (corn (Zea mays); [10]) was 30 and the “Plant response rating, Corn” value (corn (Zea mays); [16]) was 45. The “Plant response rating, Corn” value (corn (Zea mays); [12]) was 5, the “Plant response rating, Corn” value (corn (Zea mays); [13]) was 15 and the “Plant response rating, Corn” value (corn (Zea mays); [14]) was 25. For the same compound, the “Plant response rating, Corn” value (corn (Zea mays); [15]) was 55.

— patent US9302999B2, “Substituted triazoles as herbicides” (E. I. DU PONT DE NEMOURS AND COMPANY, priority 2012, dated 2016)
